# Laboratory results taken from ChEMBL document CHEMBL1201862, “PubChem BioAssay data set” (2004).
# Calls of active or inactive are those of the source.
# Columns and labels:
# Caspase-3 = target: T1, Caspase-3 (Homo sapiens, UniProt P42574); assay type: functional;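 further: Dose-response selectivity test against caspase-3 for candidate inhibitors of sentrin-specific proteases (SENPs)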
# T1 sequence (P42574 whole entry): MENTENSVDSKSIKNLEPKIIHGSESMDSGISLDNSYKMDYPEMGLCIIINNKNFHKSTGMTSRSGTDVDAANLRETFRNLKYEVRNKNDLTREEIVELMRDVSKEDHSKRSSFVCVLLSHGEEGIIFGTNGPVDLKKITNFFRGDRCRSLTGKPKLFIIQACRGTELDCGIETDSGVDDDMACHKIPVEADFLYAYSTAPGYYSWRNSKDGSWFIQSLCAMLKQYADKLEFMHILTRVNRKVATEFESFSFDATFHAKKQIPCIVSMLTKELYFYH
# [1] = StAR promoter reporter inhibition counter-screen, dose response, counter-screen for LRH-1 inverse agonist project, cell-based, luminescence, luciferase reporter (AID 651969); assay type: functional
# HEK293 [2] = assay: cells; assay type: functional, cell-based; conditions: Homo sapiens
# cells = assay type: functional
# HEK293 [3] = assay: NOD2 signaling inhibitors in MDP-stimulated cells, cell-based, uHTS, luminescence (AID 2001); assay type: functional; conditions: Homo sapiens
# [4] = THP-1 cell cytotoxicity, dose response, cytotoxicity control for non-replicating M. tuberculosis project (AID 489025); assay type: functional
# Steroidogenic factor 1 = Steroidogenic factor 1 (Homo sapiens, UniProt Q13285); assay: Counterscreen for inverse agonists of the liver receptor homolog-1 (LRH-1; NR5A2): Luminescence-based cell-based high throughput dose response assay to identify inverse agonists of the Steroidogenic Factor 1 Nuclear Receptor (SF1; NR5A1).; assay type: functional
# Chain of Steroidogenic factor 1 (Q13285 whole entry): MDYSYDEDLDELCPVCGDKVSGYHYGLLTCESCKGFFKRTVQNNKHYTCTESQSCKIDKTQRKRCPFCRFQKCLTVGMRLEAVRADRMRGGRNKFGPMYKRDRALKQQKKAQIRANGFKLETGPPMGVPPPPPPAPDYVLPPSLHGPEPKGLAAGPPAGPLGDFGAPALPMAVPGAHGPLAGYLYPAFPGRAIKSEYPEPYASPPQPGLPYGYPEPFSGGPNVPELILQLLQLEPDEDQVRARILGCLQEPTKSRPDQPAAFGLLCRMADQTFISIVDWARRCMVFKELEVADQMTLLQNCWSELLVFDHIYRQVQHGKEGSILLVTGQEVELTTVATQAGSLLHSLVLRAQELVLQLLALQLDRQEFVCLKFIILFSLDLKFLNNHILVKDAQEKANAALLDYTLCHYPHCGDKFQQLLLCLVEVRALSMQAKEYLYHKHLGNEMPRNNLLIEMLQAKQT
# HEK293 [5] = assay: NOD1 signaling inhibitors, primary screen, cell-based, luminescence, uHTS (AID 1578); assay type: functional; conditions: Homo sapiens
# [6] = target: T2, Sentrin-specific protease 6 (Homo sapiens, UniProt Q9GZR1); assay type: functional;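 further: Luminescence-based dose-response confirmatory assay of SENP6 inhibition, following up an ultra-high-throughput screen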
# T2 sequence (Q9GZR1 whole entry): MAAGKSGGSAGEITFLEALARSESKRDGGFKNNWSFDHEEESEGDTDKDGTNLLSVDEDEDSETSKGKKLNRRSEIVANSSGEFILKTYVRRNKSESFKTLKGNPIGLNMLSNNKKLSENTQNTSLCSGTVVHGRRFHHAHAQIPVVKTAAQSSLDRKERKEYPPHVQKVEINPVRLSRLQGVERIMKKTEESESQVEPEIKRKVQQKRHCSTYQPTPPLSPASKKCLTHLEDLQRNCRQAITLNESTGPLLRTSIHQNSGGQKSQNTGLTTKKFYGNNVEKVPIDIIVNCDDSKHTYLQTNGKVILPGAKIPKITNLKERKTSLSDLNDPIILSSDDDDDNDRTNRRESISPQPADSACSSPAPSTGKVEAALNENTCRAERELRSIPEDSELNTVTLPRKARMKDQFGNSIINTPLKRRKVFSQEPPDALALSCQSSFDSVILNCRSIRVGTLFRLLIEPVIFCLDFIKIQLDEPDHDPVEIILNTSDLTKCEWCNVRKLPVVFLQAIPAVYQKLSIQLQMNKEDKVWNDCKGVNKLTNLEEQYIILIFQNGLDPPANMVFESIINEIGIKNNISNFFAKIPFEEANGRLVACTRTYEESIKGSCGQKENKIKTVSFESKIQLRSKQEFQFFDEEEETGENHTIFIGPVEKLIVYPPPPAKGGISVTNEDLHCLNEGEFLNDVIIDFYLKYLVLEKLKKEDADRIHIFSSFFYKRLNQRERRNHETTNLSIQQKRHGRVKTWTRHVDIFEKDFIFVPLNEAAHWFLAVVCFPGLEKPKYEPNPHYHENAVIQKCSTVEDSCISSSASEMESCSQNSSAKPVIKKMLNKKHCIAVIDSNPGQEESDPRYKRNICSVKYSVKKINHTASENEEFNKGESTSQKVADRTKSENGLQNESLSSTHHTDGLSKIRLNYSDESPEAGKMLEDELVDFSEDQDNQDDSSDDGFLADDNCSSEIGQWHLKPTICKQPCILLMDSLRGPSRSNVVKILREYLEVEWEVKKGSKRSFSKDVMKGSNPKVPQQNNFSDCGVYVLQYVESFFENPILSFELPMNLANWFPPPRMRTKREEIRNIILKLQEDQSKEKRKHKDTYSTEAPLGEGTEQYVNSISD
# [7] = target: Nuclear receptor subfamily 5 group A member 2 (Homo sapiens, UniProt O00482); assay type: functional, cell-based;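 further: HEK293T cells transfected with LRH-1 and a StAR promoter luciferase reporter; potency for inhibitors that lower LRH-1 driven reporter light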
# Chain of Nuclear receptor subfamily 5 group A member 2 (O00482 whole entry): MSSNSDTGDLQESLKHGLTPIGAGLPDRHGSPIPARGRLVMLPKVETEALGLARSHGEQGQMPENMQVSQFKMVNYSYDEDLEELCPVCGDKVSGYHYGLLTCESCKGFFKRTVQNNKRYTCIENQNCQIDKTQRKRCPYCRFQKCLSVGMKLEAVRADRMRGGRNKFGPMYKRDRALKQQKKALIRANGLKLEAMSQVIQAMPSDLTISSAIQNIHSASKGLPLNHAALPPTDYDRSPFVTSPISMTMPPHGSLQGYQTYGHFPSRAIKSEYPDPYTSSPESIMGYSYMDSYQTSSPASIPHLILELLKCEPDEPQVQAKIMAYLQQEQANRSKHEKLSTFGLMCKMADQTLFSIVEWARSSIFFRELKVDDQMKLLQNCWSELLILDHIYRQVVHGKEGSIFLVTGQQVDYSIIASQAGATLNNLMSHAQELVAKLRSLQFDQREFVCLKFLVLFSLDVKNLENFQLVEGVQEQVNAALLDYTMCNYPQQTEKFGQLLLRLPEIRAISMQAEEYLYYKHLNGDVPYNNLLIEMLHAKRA
# [8] = target: T3, Sentrin-specific protease 8 (Homo sapiens, UniProt Q96LD8); assay type: functional;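 further: luminescence read-out of SENP8 inhibition, dose-response confirmation following an ultra-high-throughput screen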
# T3 sequence (Q96LD8 whole entry): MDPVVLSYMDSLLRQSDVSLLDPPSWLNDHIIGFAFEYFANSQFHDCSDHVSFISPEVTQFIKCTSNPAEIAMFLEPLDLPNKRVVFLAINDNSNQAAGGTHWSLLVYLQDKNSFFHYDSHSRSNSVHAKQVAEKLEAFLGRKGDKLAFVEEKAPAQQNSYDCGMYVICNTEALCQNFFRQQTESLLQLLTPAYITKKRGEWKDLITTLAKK
# HEK293 [9] = assay: cells; assay type: functional, cell-based; conditions: Homo sapiens; remark: listed apart in the source
# [10] = target: T4, Sentrin-specific protease 7 (Homo sapiens, UniProt Q9BQF6); assay type: functional;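 further: Luminescence-based dose-response confirmation of ultra-high-throughput screening hits, measuring inhibition of SENP7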
# T4 sequence (Q9BQF6 whole entry): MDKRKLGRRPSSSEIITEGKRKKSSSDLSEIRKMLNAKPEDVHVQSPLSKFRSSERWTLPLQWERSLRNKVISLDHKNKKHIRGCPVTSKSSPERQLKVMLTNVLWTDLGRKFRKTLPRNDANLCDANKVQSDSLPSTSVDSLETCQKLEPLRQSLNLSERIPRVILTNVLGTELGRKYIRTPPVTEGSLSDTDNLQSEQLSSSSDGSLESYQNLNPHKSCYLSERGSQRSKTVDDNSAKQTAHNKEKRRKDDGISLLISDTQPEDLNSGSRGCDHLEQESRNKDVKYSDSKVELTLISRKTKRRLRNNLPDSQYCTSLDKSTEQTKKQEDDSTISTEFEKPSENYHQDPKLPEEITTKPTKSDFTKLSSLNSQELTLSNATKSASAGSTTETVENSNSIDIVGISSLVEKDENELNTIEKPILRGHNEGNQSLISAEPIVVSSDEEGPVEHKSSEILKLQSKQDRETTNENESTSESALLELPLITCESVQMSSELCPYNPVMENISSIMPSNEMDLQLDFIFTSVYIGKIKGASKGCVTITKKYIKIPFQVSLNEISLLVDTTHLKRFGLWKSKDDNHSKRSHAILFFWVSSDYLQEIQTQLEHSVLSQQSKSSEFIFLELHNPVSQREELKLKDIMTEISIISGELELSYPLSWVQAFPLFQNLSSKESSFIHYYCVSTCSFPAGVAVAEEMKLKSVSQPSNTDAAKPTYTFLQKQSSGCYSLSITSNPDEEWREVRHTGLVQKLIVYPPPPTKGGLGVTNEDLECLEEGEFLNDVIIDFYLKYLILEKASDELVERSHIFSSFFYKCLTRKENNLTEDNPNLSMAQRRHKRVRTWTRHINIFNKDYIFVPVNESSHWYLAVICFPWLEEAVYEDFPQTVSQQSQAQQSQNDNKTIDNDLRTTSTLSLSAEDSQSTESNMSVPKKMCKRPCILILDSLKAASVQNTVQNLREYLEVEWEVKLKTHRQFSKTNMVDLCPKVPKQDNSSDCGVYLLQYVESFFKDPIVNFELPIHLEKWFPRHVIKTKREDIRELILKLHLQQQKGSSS
# HEK293 [11] = assay: cells; assay type: functional, cell-based; conditions: Homo sapiens; remark: listed apart in the source
# [12] = target: Nucleotide-binding oligomerization domain-containing protein 2 (Homo sapiens, UniProt Q9HC29); assay: NOD2 signaling inhibitors, cell-based, luminescence, uHTS, HEK293 (AID 1566); assay type: functional
# Chain of Nucleotide-binding oligomerization domain-containing protein 2 (Q9HC29 whole entry, the tested form may be a part): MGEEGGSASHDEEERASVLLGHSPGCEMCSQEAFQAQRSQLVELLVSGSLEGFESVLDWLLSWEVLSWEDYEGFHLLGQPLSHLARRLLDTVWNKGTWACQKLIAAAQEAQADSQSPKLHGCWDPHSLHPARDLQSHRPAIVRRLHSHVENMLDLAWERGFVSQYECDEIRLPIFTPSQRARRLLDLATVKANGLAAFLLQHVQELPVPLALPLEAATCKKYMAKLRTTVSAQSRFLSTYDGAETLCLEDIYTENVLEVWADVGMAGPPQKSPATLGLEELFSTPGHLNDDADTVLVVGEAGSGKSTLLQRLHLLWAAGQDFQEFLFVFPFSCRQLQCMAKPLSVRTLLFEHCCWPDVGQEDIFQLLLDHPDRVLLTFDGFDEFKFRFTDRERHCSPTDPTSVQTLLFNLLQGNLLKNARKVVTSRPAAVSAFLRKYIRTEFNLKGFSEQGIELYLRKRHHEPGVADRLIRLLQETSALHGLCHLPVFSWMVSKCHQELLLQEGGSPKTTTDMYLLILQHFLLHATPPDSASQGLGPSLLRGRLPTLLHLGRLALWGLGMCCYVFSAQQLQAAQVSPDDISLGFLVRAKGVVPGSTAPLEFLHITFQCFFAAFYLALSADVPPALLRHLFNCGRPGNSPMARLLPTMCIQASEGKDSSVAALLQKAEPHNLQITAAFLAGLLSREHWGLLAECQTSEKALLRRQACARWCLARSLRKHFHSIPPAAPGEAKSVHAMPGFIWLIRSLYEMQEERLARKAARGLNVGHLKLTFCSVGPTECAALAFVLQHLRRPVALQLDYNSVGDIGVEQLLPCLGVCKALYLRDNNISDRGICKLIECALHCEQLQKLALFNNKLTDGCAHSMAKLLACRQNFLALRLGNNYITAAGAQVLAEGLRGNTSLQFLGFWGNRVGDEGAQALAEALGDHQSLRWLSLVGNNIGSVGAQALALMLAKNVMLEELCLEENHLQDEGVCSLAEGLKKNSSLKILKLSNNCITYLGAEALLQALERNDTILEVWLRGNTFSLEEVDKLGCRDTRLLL
# BJ [13] = assay: cells; assay type: functional, cell-based; conditions: Homo sapiens
# [14] = cytotoxicity toward DRD oncogenic fibroblasts, dose response, cell-based, non-viral oncogenic, luminescence (AID 1934); assay type: functional; conditions: Homo sapiens
# Protein RecA = target: T5, Protein RecA (Mycobacterium tuberculosis, UniProt P9WHJ3); assay: Fluorescence Cell-Free Homogeneous Dose Retest to Identify Inhibitors of RecA-Intein Splicing Activity. [Related pubchem assays (depositor defined):AID2097, AID2223, AID489010, AID492950]; assay type: functional
# T5 sequence (P9WHJ3 whole entry): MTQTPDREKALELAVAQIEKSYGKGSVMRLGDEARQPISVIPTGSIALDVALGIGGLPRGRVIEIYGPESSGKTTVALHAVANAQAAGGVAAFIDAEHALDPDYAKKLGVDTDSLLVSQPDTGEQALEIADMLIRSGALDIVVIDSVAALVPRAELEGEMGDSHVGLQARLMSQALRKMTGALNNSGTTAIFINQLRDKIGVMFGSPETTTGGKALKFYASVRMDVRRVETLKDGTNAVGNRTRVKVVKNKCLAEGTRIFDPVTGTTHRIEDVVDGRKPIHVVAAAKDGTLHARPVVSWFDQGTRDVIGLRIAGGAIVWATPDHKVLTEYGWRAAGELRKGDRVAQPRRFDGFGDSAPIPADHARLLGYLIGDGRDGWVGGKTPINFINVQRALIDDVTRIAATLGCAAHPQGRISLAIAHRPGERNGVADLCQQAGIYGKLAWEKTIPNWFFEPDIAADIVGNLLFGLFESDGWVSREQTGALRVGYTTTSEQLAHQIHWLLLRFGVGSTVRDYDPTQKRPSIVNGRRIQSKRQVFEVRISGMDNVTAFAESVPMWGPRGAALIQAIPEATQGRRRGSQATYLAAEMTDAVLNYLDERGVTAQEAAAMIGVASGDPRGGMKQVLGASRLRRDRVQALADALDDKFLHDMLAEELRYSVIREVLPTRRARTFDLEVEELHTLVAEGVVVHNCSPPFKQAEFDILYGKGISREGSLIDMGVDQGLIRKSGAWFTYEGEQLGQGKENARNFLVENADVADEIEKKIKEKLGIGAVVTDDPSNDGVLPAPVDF
# BJ [15] = assay: cytotoxicity toward BJ-TERT fibroblasts, dose response, cell-based, RAS-independent, luminescence (AID 1933); assay type: functional; conditions: Homo sapiens
# BJ [16] = assay: cytotoxicity toward BJ-TERT-LT-ST fibroblasts, dose response, cell-based, RAS-independent, luminescence (AID 1935); assay type: functional; conditions: Homo sapiens;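 further: BJ fibroblasts immortalized with TERT plus LT and ST oncogenes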
# [17] = target: T6, Replicative DNA helicase DnaB (Mycobacterium tuberculosis, UniProt P9WMR3); assay: DnaB intein splicing inhibitors, dose response, biochemical, cell-free fluorescence (AID 449749); assay type: functional
# T6 sequence (P9WMR3 whole entry): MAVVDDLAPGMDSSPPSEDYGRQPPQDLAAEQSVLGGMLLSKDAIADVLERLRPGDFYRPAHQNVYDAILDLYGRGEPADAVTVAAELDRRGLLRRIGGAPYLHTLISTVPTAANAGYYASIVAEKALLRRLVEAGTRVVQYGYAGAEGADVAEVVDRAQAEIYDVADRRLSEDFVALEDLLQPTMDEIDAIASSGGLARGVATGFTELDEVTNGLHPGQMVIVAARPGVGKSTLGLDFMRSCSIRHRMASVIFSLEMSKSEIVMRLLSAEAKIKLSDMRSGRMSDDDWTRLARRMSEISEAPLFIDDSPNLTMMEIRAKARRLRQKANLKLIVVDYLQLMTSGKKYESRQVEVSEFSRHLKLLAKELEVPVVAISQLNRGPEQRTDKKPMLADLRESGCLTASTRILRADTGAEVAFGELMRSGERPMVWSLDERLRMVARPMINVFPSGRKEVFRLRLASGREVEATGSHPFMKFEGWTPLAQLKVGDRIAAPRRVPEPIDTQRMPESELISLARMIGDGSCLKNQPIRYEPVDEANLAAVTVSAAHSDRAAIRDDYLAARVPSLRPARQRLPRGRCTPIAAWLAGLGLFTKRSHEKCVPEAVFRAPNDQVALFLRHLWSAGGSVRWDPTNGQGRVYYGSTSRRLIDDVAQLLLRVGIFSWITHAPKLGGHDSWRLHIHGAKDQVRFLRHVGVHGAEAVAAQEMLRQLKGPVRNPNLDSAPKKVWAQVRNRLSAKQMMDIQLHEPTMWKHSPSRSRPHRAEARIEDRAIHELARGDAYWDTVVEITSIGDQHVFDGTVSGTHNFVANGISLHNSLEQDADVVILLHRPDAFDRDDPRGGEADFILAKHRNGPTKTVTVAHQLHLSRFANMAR
Compound,IC50 (HEK293 [2]),IC50 (HEK293 [3]),EC50 (HEK293 [5]),IC50 (HEK293 [9]),IC50 (HEK293 [11]),EC50 [12],further results
O=C(Nc1nc2c(Cl)cccc2s1)c1ccc([N+](=O)[O-])o1,18.6 µM (active),13.2 µM (inactive),5.52 µM (active),7.38 µM (active),–,–,IC50 (Caspase-3): 61.8 µM (active); IC50 [1]: 35.9 µM (inactive); IC50 (cells): 10.4 µM (active); CC50 [4]: 39.3 µM (active); IC50 (Steroidogenic factor 1): 0.443 µM (active); IC50 [6]: 20.3 µM (active); IC50 [7]: 0.148 µM (active); IC50 [8]: 32.9 µM (active); IC50 [10]: 17.2 µM (active)
CCOC(=O)c1sc2ccccc2c1OC(=O)c1ccc(C)cc1,9.53 µM (active),6.76 µM (active),10.7 µM (active),> 20 µM (inactive),> 20 µM (inactive),2.22 µM (active),–
O=C(CCl)Nc1cc(-c2ccccc2)nn1-c1ccccc1,4.63 µM (active),7.21 µM (active),4.71 µM (active),19.2 µM (active),> 20 µM (inactive),> 20 µM (inactive),EC50 (BJ [13]): 9.6 µM (active); EC50 [14]: 8.91 µM (active); EC50 (Protein RecA): 5.55 µM (active); EC50 (BJ [15]): 5.38 µM (inconclusive); EC50 (BJ [16]): 5.05 µM (active); AC50 [17]: > 380 µM (inactive)
